From ChEMBL document CHEMBL1152755, “Synthesis and cytotoxic properties of 4,11-bis[(aminoethyl)amino]anthra[2,3-b]thiophene-5,10-diones, novel analogues of antitumor anthracene-9,10-diones” (2009)
Active and inactive are the calls of the source. The rule behind the calls is not given here.

Experiments:
[1] = molecular target: Telomerase reverse transcriptase (Homo sapiens) (UniProt O14746); experiment: Inhibition of telomerase at 1 uM by TRAP assay
HCT-116 = experiment: Resistance index, ratio IC50 for HCT116 cells to IC50 for p53 deleted human HCT116 cells; format: functional
K562 = experiment: Resistance index, ratio IC50 for human K562 cells to IC50 for P-gp positive human K562 cells; format: functional
[2] = molecular target: T1, DNA topoisomerase 1 (Homo sapiens) (UniProt P11387); experiment: Inhibition of topoisomerase 1-mediate pHot DNA relaxation measured by electrophoretic mobility
T1 sequence (whole entry): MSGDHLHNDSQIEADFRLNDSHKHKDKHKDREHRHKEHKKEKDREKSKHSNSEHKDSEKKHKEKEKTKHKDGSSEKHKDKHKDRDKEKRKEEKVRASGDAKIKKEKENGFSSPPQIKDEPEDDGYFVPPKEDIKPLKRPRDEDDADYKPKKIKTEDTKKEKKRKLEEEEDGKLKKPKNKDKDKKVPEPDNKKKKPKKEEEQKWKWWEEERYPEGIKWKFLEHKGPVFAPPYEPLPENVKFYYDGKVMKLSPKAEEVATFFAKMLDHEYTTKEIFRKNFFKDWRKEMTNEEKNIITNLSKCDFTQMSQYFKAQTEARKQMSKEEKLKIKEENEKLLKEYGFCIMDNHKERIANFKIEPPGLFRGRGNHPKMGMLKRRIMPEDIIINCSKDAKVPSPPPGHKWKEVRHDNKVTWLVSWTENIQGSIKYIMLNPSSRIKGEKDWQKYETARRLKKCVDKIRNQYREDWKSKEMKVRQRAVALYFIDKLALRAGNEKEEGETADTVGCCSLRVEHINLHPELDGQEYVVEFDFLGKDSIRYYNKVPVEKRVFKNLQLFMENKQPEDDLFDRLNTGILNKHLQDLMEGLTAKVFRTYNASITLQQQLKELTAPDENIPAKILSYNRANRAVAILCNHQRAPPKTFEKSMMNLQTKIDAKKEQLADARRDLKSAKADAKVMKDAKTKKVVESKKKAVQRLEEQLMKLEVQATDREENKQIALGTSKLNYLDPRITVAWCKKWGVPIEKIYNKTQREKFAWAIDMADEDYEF

Telomerase reverse transcriptase (Homo sapiens), sequence (O14746 whole entry): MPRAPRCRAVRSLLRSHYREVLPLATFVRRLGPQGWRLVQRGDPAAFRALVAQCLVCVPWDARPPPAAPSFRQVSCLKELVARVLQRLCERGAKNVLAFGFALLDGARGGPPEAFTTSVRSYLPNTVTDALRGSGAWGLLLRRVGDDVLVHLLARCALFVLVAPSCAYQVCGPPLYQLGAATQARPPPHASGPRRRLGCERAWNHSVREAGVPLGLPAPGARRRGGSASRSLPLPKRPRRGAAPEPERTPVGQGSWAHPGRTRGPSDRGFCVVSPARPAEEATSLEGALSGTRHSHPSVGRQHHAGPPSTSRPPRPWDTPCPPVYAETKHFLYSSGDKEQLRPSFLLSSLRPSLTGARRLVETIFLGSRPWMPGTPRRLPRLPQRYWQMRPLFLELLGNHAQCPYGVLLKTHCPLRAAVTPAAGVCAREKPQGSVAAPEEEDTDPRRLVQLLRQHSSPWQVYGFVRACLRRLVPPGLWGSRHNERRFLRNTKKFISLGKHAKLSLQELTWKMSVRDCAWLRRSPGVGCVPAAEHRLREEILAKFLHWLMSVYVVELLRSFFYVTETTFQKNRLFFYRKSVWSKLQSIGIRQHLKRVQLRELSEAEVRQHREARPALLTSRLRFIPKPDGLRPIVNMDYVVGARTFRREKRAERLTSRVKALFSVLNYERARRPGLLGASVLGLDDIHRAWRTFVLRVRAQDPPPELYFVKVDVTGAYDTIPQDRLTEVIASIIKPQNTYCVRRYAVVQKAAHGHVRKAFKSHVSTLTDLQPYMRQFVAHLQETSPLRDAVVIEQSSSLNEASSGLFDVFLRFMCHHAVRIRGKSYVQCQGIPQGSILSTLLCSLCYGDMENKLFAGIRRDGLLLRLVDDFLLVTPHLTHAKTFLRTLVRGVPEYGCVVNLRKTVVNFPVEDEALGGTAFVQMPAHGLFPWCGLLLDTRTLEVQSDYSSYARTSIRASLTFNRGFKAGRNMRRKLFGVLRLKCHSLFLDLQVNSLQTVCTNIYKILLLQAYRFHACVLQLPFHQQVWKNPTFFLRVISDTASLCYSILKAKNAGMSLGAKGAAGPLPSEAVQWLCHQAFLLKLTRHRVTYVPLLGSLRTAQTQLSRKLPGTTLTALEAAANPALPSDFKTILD

Row | Activity [1] | Activity [2] | SMILES | Ratio IC50 (HCT-116) | Ratio IC50 (K562)
1 | Active | – | CN(CCNc1c2c(c(NCCN(C)C(=N)N)c3sccc13)C(=O)c1ccccc1C2=O)C(=N)N | >24 | –
2 | – | – | CNCCNc1c2c(c(NCCNC)c3c(C)csc13)C(=O)c1ccccc1C2=O | 2.7 | 2
3 | – | – | CN(C)CCNc1c2c(c(NCCN(C)C)c3sc(C(=O)NN)cc13)C(=O)c1ccccc1C2=O | >25 | >90
4 | – | – | CN(C)CCNc1c2c(c(NCCN(C)C)c3sccc13)C(=O)c1ccccc1C2=O | 0.6 | 2.3
5 | Active | Active | CNCCNc1c2c(c(NCCNC)c3sccc13)C(=O)c1ccccc1C2=O | 0.6 | 1.4
6 | – | – | CNCCNc1c2c(c(NCCNC)c3sc(C(=O)NC)cc13)C(=O)c1ccccc1C2=O | – | >11
7 | – | – | CNC(=O)c1cc2c(NCCN(C)C)c3c(c(NCCN(C)C)c2s1)C(=O)c1ccccc1C3=O | 4.2 | 1.1
8 | – | – | Cc1csc2c(NCCN)c3c(c(NCCN)c12)C(=O)c1ccccc1C3=O | >83 | 5
9 | – | – | Cc1csc2c(NCCN(C)C)c3c(c(NCCN(C)C)c12)C(=O)c1ccccc1C3=O | 8.4 | 1.8
10 | – | – | CNCCNc1c2c(c(NCCNC)c3[nH]ccc13)C(=O)c1ccccc1C2=O | 1 | 3.1
11 | – | – | O=C1c2ccccc2C(=O)c2c1c(NCCNCCO)c1ccsc1c2NCCNCCO | – | >12
12 | – | – | COc1cccc2c1C(=O)c1c(O)c3c(c(O)c1C2=O)C[C@@](O)(C(=O)CO)C[C@@H]3O[C@H]1C[C@H](N)[C@H](O)[C@H](C)O1 [DOXORUBICIN] | – | 51
13 | – | – | CN(C)CCNc1c2c(c(NCCN(C)C)c3sc(C(=O)NCCO)cc13)C(=O)c1ccccc1C2=O | – | >6
14 | – | – | CC(=O)OCCNCCNc1c2c(c(NCCNCCOC(C)=O)c3sccc13)C(=O)c1ccccc1C2=O | – | >18
15 | Active | – | N=C(N)NCCNc1c2c(c(NCCNC(=N)N)c3sccc13)C(=O)c1ccccc1C2=O | >25 | 3.4
